The assay relates to MV-4-11 cells. Kind of assay: Gene expression microarray analysis (Affymetrix PrimeView) and GSEA. It is filed as cell-based, human. The arrangement: RFU PODN (11730768_x_at) / Fold change /veh PODN (11730768_x_at) / RFU LINC00158 (11744669_a_at) / Fold change /veh LINC00158 (11744669_a_at) / RFU DUSP10 (11751237_a_at) / Fold change /veh DUSP10 (11751237_a_at) / RFU ID3 (11757404_x_at) / Fold change /veh ID3 (11757404_x_at) / RFU PLEKHG5 (11737974_s_at) / Fold change /veh PLEKHG5 (11737974_s_at) / RFU LRRC4B (11730491_at) / Fold change /veh LRRC4B (11730491_at) / RFU GIMAP4 (11747438_a_at) / Fold change /veh GIMAP4 (11747438_a_at) / RFU KRT8 (11758183_x_at) / Fold change /veh KRT8 (11758183_x_at) / RFU CNN1 (11734310_a_at) / Fold change /veh CNN1 (11734310_a_at) / RFU VPS37D (11726825_at) / Fold change /veh VPS37D (11726825_at) / RFU C10orf10 (11716522_x_at) / Fold change /veh C10orf10 (11716522_x_at) / RFU KIR2DL2 /// KIR2DL4 /// KIR2DL5A /// KIR2DL5B /// KIR2DS1 /// KIR2DS2 /// KIR2DS3 /// KIR2DS4 /// KIR3DL3 /// KIR3DL3 /// KIR3DS1 (11738374_at) / Fold change /veh KIR2DL2 /// KIR2DL4 /// KIR2DL5A /// KIR2DL5B /// KIR2DS1 /// KIR2DS2 /// KIR2DS3 /// KIR2DS4 /// KIR3DL3 /// KIR3DL3 /// KIR3DS1 (11738374_at) / RFU C1QL1 (11718748_at) / Fold change /veh C1QL1 (11718748_at) / RFU TMPRSS4 (11747572_a_at) / Fold change /veh TMPRSS4 (11747572_a_at) / RFU HAMP (11756126_x_at) / Fold change /veh HAMP (11756126_x_at) / RFU RNFT2 (11725882_a_at) / Fold change /veh RNFT2 (11725882_a_at) / RFU NR4A2 (11747474_a_at) / Fold change /veh NR4A2 (11747474_a_at) / RFU ABCC12 (11746883_a_at) / Fold change /veh ABCC12 (11746883_a_at) / RFU TMEM136 (11760407_x_at) / Fold change /veh TMEM136 (11760407_x_at) / RFU CLDN22 /// WWC2 (11732394_at) / Fold change /veh CLDN22 /// WWC2 (11732394_at) / RFU HLA-DPB1 (11760878_x_at) / Fold change /veh HLA-DPB1 (11760878_x_at) / RFU SPINT1 (11716480_a_at) / Fold change /veh SPINT1 (11716480_a_at) / RFU GAP43 (11754022_s_at) / Fold change /veh GAP43 (11754022_s_at) / RFU A4GNT (11735810_at) / Fold change /veh A4GNT (11735810_at) / RFU PRB3 (11715151_x_at) / Fold change /veh PRB3 (11715151_x_at) / RFU TUBB4B (11761932_at) / Fold change /veh TUBB4B (11761932_at) / RFU CAPN14 (11732068_a_at) / Fold change /veh CAPN14 (11732068_a_at) / RFU TMCC2 (11721928_a_at) / Fold change /veh TMCC2 (11721928_a_at) / RFU IRGQ (11745062_a_at) / Fold change /veh IRGQ (11745062_a_at) / RFU FAM174B (11720279_a_at) / Fold change /veh FAM174B (11720279_a_at) / RFU TMPRSS4 (11748680_a_at) / Fold change /veh TMPRSS4 (11748680_a_at) / RFU FAM212B (11763350_a_at) / Fold change /veh FAM212B (11763350_a_at) / RFU PLEKHG5 (11743358_a_at) / Fold change /veh PLEKHG5 (11743358_a_at) / RFU ZSCAN30 (11745921_a_at) / Fold change /veh ZSCAN30 (11745921_a_at) / RFU CMKLR1 (11741424_a_at) / Fold change /veh CMKLR1 (11741424_a_at) / RFU LOC101060620 /// MAPK8IP1 (11723275_at) / Fold change /veh LOC101060620 /// MAPK8IP1 (11723275_at) / RFU SPTSSB (11747773_x_at) / Fold change /veh SPTSSB (11747773_x_at) / RFU PRSS12 (11739890_at) / Fold change /veh PRSS12 (11739890_at) / RFU BIN1 (11741810_x_at) / Fold change /veh BIN1 (11741810_x_at) / RFU WNT11 (11732464_a_at) / Fold change /veh WNT11 (11732464_a_at) / RFU C10orf10 (11716521_a_at) / Fold change /veh C10orf10 (11716521_a_at) / RFU C5orf56 (11738089_at) / Fold change /veh C5orf56 (11738089_at) / RFU CYB561 (11721691_x_at) / Fold change /veh CYB561 (11721691_x_at) / RFU ANKRD19P (11752326_a_at) / Fold change /veh ANKRD19P (11752326_a_at) / RFU OR2T12 /// OR2T33 /// OR2T8 (11738714_s_at) / Fold change /veh OR2T12 /// OR2T33 /// OR2T8 (11738714_s_at) / RFU VCAN (11748164_a_at) / Fold change /veh VCAN (11748164_a_at) / RFU JSRP1 (11732532_at) / Fold change /veh JSRP1 (11732532_at) / RFU KRTAP10-11 (11738290_x_at) / Fold change /veh KRTAP10-11 (11738290_x_at) / RFU MYO3A (11730013_a_at) / Fold change /veh MYO3A (11730013_a_at) / RFU EBF3 (11725865_a_at) / Fold change /veh EBF3 (11725865_a_at) / RFU CAMK2N1 (11719241_x_at) / Fold change /veh CAMK2N1 (11719241_x_at) / RFU C5orf56 (11738088_a_at) / Fold change /veh C5orf56 (11738088_a_at) / RFU OLFML3 (11715873_a_at) / Fold change /veh OLFML3 (11715873_a_at) / RFU LOC100653217 /// NTM (11731650_a_at) / Fold change /veh LOC100653217 /// NTM (11731650_a_at) / RFU MAPK11 (11762145_a_at) / Fold change /veh MAPK11 (11762145_a_at) / RFU FIZ1 (11724087_x_at) / Fold change /veh FIZ1 (11724087_x_at) / RFU OASL (11726364_x_at) / Fold change /veh OASL (11726364_x_at) / RFU SOX15 (11748057_x_at) / Fold change /veh SOX15 (11748057_x_at) / RFU CD79A (11719716_a_at) / Fold change /veh CD79A (11719716_a_at) / RFU HIST1H1D (11736915_at) / Fold change /veh HIST1H1D (11736915_at) / RFU CASKIN2 (11723855_a_at) / Fold change /veh CASKIN2 (11723855_a_at) / RFU LOC730098 (11760151_x_at) / Fold change /veh LOC730098 (11760151_x_at) / RFU OR4N2 (11742367_at) / Fold change /veh OR4N2 (11742367_at) / RFU PRRT2 (11749266_a_at) / Fold change /veh PRRT2 (11749266_a_at) / RFU SNX32 (11753110_a_at) / Fold change /veh SNX32 (11753110_a_at) / RFU CDHR5 (11726645_a_at) / Fold change /veh CDHR5 (11726645_a_at) / RFU RCAN1 (11760418_a_at) / Fold change /veh RCAN1 (11760418_a_at) / RFU FAM167A (11723789_a_at) / Fold change /veh FAM167A (11723789_a_at) / RFU FAM26E (11764081_at) / Fold change /veh FAM26E (11764081_at) / RFU ISYNA1 (11749810_s_at) / Fold change /veh ISYNA1 (11749810_s_at) / RFU ACY1 (11761880_at) / Fold change /veh ACY1 (11761880_at) / RFU 11764098_at / Fold change /veh 11764098_at / RFU SAMD14 (11745864_x_at) / Fold change /veh SAMD14 (11745864_x_at) / RFU NPB (11741838_a_at) / Fold change /veh NPB (11741838_a_at) / RFU TMPRSS6 (11731388_a_at) / Fold change /veh TMPRSS6 (11731388_a_at) / RFU KRTAP10-2 (11738614_at) / Fold change /veh KRTAP10-2 (11738614_at) / RFU ARHGAP8 /// PRR5-ARHGAP8 (11727945_x_at) / Fold change /veh ARHGAP8 /// PRR5-ARHGAP8 (11727945_x_at) / RFU KRTAP5-7 /// NADSYN1 (11734609_at) / Fold change /veh KRTAP5-7 /// NADSYN1 (11734609_at) / RFU RASL12 (11751679_a_at) / Fold change /veh RASL12 (11751679_a_at) / RFU CDKN2B (11736163_a_at) / Fold change /veh CDKN2B (11736163_a_at) / RFU PRF1 (11729649_at) / Fold change /veh PRF1 (11729649_at) / RFU, ZNF638 /// ZNF638-IT1 / Fold change vs veh, ZNF638 /// ZNF638-IT1 / RFU, PANK3 / Fold change vs veh, PANK3 / RFU, SH3YL1 / Fold change vs veh, SH3YL1 / RFU, ZEB2 / Fold change vs veh, ZEB2 / RFU, NRIP1 / Fold change vs veh, NRIP1 / RFU, PTTG1IP / Fold change vs veh, PTTG1IP / RFU, CAPN2 / Fold change vs veh, CAPN2 / RFU, MED14 / Fold change vs veh, MED14 / RFU, SNORA58 / Fold change vs veh, SNORA58 / RFU, C1orf63 / Fold change vs veh, C1orf63 / RFU, LRRFIP1 / Fold change vs veh, LRRFIP1 / RFU, NDUFAF7 / Fold change vs veh, NDUFAF7 / RFU, SLC12A2 / Fold change vs veh, SLC12A2 / RFU, IBTK / Fold change vs veh, IBTK / RFU, ESF1 / Fold change vs veh, ESF1 / Fold change vs veh, TMEM50B / RFU, TAOK1 / Fold change vs veh, TAOK1 / RFU, ACBD3 / Fold change vs veh, ACBD3 / RFU, TMA16 / Fold change vs veh, TMA16 / RFU, RWDD3 / Fold change vs veh, RWDD3 / RFU, BCAT1 / Fold change vs veh, BCAT1 / RFU, EDEM3 / Fold change vs veh, EDEM3 / RFU, TMEM33 / Fold change vs veh, TMEM33 / RFU, WDR75 / Fold change vs veh, WDR75 / RFU, AHCTF1 / Fold change vs veh, AHCTF1 / RFU, TFRC / Fold change vs veh, TFRC / RFU, ZDHHC17 / Fold change vs veh, ZDHHC17 / RFU, NOM1 / Fold change vs veh, NOM1 / RFU, ARL8B / Fold change vs veh, ARL8B / RFU, ZBTB11 / Fold change vs veh, ZBTB11 / RFU, TAMM41 / Fold change vs veh, TAMM41 / RFU, KIAA1704 /// LOC100996395 / Fold change vs veh, KIAA1704 /// LOC100996395 / RFU, ING1 / Fold change vs veh, ING1 / RFU, TRMT61B / Fold change vs veh, TRMT61B / RFU, FUBP3 / Fold change vs veh, FUBP3 / RFU, TP53 / Fold change vs veh, TP53 / RFU, TNKS2 / Fold change vs veh, TNKS2 / RFU, ZFP14 / Fold change vs veh, ZFP14 / RFU, ACTR2 / Fold change vs veh, ACTR2 / RFU, PPP3R1 / Fold change vs veh, PPP3R1 / RFU, PIK3R1 / Fold change vs veh, PIK3R1 / RFU, HNRNPA1 / Fold change vs veh, HNRNPA1 / RFU, RNF170 / Fold change vs veh, RNF170 / RFU, ZNF28 / Fold change vs veh, ZNF28 / RFU, RNGTT / Fold change vs veh, RNGTT / RFU, OGT / Fold change vs veh, OGT / RFU, BRD1 / Fold change vs veh, BRD1 / RFU, MARS / Fold change vs veh, MARS / RFU, ZNF655 / Fold change vs veh, ZNF655 / RFU, FAHD1 / Fold change vs veh, FAHD1 / RFU, BDP1 / Fold change vs veh, BDP1 / RFU, LRRCC1 / Fold change vs veh, LRRCC1 / RFU, ARID1A / Fold change vs veh, ARID1A / RFU, ZNF146 / Fold change vs veh, ZNF146 / RFU, ZNF330 / Fold change vs veh, ZNF330 / RFU, GPN3 / Fold change vs veh, GPN3 / RFU, C9orf123 / Fold change vs veh, C9orf123 / RFU, N4BP2L2 / Fold change vs veh, N4BP2L2 / RFU, ARFIP1 / Fold change vs veh, ARFIP1 / RFU, FAM179B / Fold change vs veh, FAM179B / RFU, BCL10 / Fold change vs veh, BCL10 / RFU, UHRF1BP1L / Fold change vs veh, UHRF1BP1L / RFU, BET1 / Fold change vs veh, BET1 / RFU, CNOT2 / Fold change vs veh, CNOT2 / RFU, ZNF268 / Fold change vs veh, ZNF268 / Fold change vs veh, ZNF507 / RFU, DGCR2 / Fold change vs veh, DGCR2 / RFU, WDSUB1 / Fold change vs veh, WDSUB1 / Fold change vs veh, HSP90B1 /// MIR3652 / RFU, ADSS / Fold change vs veh, ADSS / RFU, GK / Fold change vs veh, GK / RFU, ZNF148 / Fold change vs veh, ZNF148 / RFU, TAF9 / Fold change vs veh, TAF9 / RFU, SLC1A5 / Fold change vs veh, SLC1A5 / RFU, SLMO2 / Fold change vs veh, SLMO2 / RFU, ABCC4 / Fold change vs veh, ABCC4 / RFU, LOC101060439 /// RAP1B / Fold change vs veh, LOC101060439 /// RAP1B / RFU, RFX7 / Fold change vs veh, RFX7 / RFU, GTPBP10 / Fold change vs veh, GTPBP10 / RFU, CNEP1R1 / Fold change vs veh, CNEP1R1 / RFU, BIVM-ERCC5 /// ERCC5 / Fold change vs veh, BIVM-ERCC5 /// ERCC5 / RFU, ILF3 / Fold change vs veh, ILF3 / RFU 11762660_at / Fold change /veh 11762660_at / RFU VCAN (11757783_s_at) / Fold change /veh VCAN (11757783_s_at) / RFU DDX43 (11728927_at) / Fold change /veh DDX43 (11728927_at) / RFU KRT8 (11758188_x_at) / Fold change /veh KRT8 (11758188_x_at) / RFU NKD1 (11759106_at) / Fold change /veh NKD1 (11759106_at) / RFU SRD5A1 (11742802_a_at) / Fold change /veh SRD5A1 (11742802_a_at) / RFU TPSAB1 /// TPSB2 (11721975_s_at) / Fold change /veh TPSAB1 /// TPSB2 (11721975_s_at) / RFU GSTM3 (11746129_a_at) / Fold change /veh GSTM3 (11746129_a_at) / RFU IL23R (11737362_x_at) / Fold change /veh IL23R (11737362_x_at) / RFU TMEM51 (11727254_a_at) / Fold change /veh TMEM51 (11727254_a_at) / RFU PIWIL2 (11732686_x_at) / Fold change /veh PIWIL2 (11732686_x_at) / RFU ORM1 (11744905_x_at) / Fold change /veh ORM1 (11744905_x_at) / RFU CCDC152 (11743942_at) / Fold change /veh CCDC152 (11743942_at) / RFU ECM1 (11717891_a_at) / Fold change /veh ECM1 (11717891_a_at) / RFU IL23R (11748794_a_at) / Fold change /veh IL23R (11748794_a_at) / RFU TNFAIP8L3 (11732012_x_at) / Fold change /veh TNFAIP8L3 (11732012_x_at) / RFU MBOAT4 (11741988_at) / Fold change /veh MBOAT4 (11741988_at) / RFU 11764193_at / Fold change /veh 11764193_at / RFU TMEM53 (11763286_at) / Fold change /veh TMEM53 (11763286_at) / RFU MAGEB2 (11727129_at) / Fold change /veh MAGEB2 (11727129_at) / RFU TMEM200A (11744735_a_at) / Fold change /veh TMEM200A (11744735_a_at) / RFU CCDC152 (11751479_a_at) / Fold change /veh CCDC152 (11751479_a_at) / RFU FAM211A (11726209_a_at) / Fold change /veh FAM211A (11726209_a_at) / RFU RGS16 (11746705_a_at) / Fold change /veh RGS16 (11746705_a_at) / RFU VCAN (11755009_s_at) / Fold change /veh VCAN (11755009_s_at) / RFU RHOB (11743442_s_at) / Fold change /veh RHOB (11743442_s_at) / RFU RGS16 (11720943_a_at) / Fold change /veh RGS16 (11720943_a_at) / RFU RGS16 (11720944_at) / Fold change /veh RGS16 (11720944_at) / RFU, VPS4B / Fold change vs veh, VPS4B / RFU, CREB1 / Fold change vs veh, CREB1 / RFU, DNAJC13 / Fold change vs veh, DNAJC13 / RFU, GNAQ / Fold change vs veh, GNAQ / RFU, CDK5R1 / Fold change vs veh, CDK5R1 / RFU, ZRANB3 / Fold change vs veh, ZRANB3 / RFU, CUL4A / Fold change vs veh, CUL4A / RFU, CCNY / Fold change vs veh, CCNY / RFU, UFL1 / Fold change vs veh, UFL1 / RFU, COG3 / Fold change vs veh, COG3 / RFU, DIAPH2 / Fold change vs veh, DIAPH2 / RFU, SKA2 / Fold change vs veh, SKA2 / RFU, AFF3 / Fold change vs veh, AFF3 / RFU, LMF1 / Fold change vs veh, LMF1 / RFU, IPO11 / Fold change vs veh, IPO11 / RFU, DFFB / Fold change vs veh, DFFB / RFU, FOXP1 / Fold change vs veh, FOXP1 / RFU, CARD8 / Fold change vs veh, CARD8 / RFU, STRN3 / Fold change vs veh, STRN3 / RFU, ADK / Fold change vs veh, ADK / RFU, RASSF2 / Fold change vs veh, RASSF2 / RFU, WIPF1 / Fold change vs veh, WIPF1 / RFU, LARP1B / Fold change vs veh, LARP1B / RFU, RASA1 / Fold change vs veh, RASA1 / RFU, RB1 / Fold change vs veh, RB1 / RFU, PPFIA1 / Fold change vs veh, PPFIA1 / RFU, MAT2A / Fold change vs veh, MAT2A / RFU, CCT5 / Fold change vs veh, CCT5 / RFU, WDR92 / Fold change vs veh, WDR92 / RFU, CUX1 / Fold change vs veh, CUX1 / RFU, TTC7A / Fold change vs veh, TTC7A / RFU, TMEM135 / Fold change vs veh, TMEM135 / RFU, DEPTOR / Fold change vs veh, DEPTOR / RFU, CPM / Fold change vs veh, CPM / RFU, DNAJB6 / Fold change vs veh, DNAJB6 / RFU, CACNA2D3 / Fold change vs veh, CACNA2D3 / RFU, DTX4 / Fold change vs veh, DTX4 / RFU, TFCP2 / Fold change vs veh, TFCP2 / RFU, GMCL1 /// GMCL1P1 / Fold change vs veh, GMCL1 /// GMCL1P1 / RFU, AEBP2 / Fold change vs veh, AEBP2 / RFU, SNHG1 /// SNORD22 /// SNORD25 /// SNORD26 /// SNORD27 /// SNORD28 /// SNORD29 /// SNORD31 / Fold change vs veh, SNHG1 /// SNORD22 /// SNORD25 /// SNORD26 /// SNORD27 /// SNORD28 /// SNORD29 /// SNORD31 / Fold change (Aza/veh), C12orf56 (ProbeSet 11735607_a_at) / Fold change (ACY-1035/veh), C12orf56 (ProbeSet 11735607_a_at) / Fold change (Aza/veh), FGFR1OP (ProbeSet 11751329_s_at) / Fold change (ACY-1035/veh), FGFR1OP (ProbeSet 11751329_s_at) / Fold change (Aza/veh), VPS36 (ProbeSet 11739960_a_at) / Fold change (ACY-1035/veh), VPS36 (ProbeSet 11739960_a_at) / RFU SYPL1 (11715823_x_at) / Fold change /veh SYPL1 (11715823_x_at) / RFU IGFBP7 (11715501_s_at) / Fold change /veh IGFBP7 (11715501_s_at) / RFU REEP3 (11722064_at) / Fold change /veh REEP3 (11722064_at) / RFU IGLL1 (11728026_x_at) / Fold change /veh IGLL1 (11728026_x_at): dose or concentration left out as unconfirmed. To be noted: ProbeSet 11756954_s_at; LIST B.

For `Nc1ccc(-c2cccs2)cc1NC(=O)c1ccc2c(c1)cc(C1CC1)n2CCN1CCOCC1` [ACY-1035], the “RFU, ZEB2” value is reported as 1361.36 RFU.

The record behind these values is article PMC5218480 (PLoS ONE, 2017).
